The supplement of paper PMC5844555

Experiments:
Assay in all cases: 3' UTR reporter interaction score (median-centred robust z-score of log2 firefly/Renilla activity); higher = less repression of the 3' UTR reporter
Details in all cases: HEK293T; 48 h
BRCA2 = tested on: BRCA2
In short: (§1)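 In at least two independent screens, HEK293T cells in 96-well plates (10,000/well) were co-transfected with DharmaFECT Duo using 100 ng firefly luc2P reporter with the gene's 3' UTR, 20 ng Renilla pRL-TK control and 2.5 pmol miRNA mimic, and dual-luciferase activities were read at 48 h. The interaction score, averaged across screens, is the per-plate robust z-score (median, median absolute deviation) of the log firefly/Renilla ratio, median-centred per miRNA, with more negative indicating interaction.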

FBXW7 = tested on: FBXW7
In short: as §1

EZH2 = tested on: EZH2
In short: as §1

MYT1L = tested on: MYT1L
In short: as §1

TP53 = tested on: TP53
In short: as §1

ZEB2 = tested on: ZEB2
In short: as §1

NOTCH1 = tested on: NOTCH1
In short: as §1

MYCN = tested on: MYCN
In short: as §1

MYB = tested on: MYB
In short: as §1

PHF6 = tested on: PHF6
In short: as §1

MYC = tested on: MYC
In short: as §1

HRAS = tested on: HRAS
In short: as §1

RB1 = tested on: RB1
In short: as §1

PHOX2B = tested on: PHOX2B
In short: as §1

| Sequence | 3' UTR reporter interaction score (BRCA2) | 3' UTR reporter interaction score (FBXW7) | 3' UTR reporter interaction score (EZH2) | 3' UTR reporter interaction score (MYT1L) | 3' UTR reporter interaction score (TP53) | 3' UTR reporter interaction score (ZEB2) | 3' UTR reporter interaction score (NOTCH1) | 3' UTR reporter interaction score (MYCN) | 3' UTR reporter interaction score (MYB) | 3' UTR reporter interaction score (PHF6) | 3' UTR reporter interaction score (MYC) | 3' UTR reporter interaction score (HRAS) | 3' UTR reporter interaction score (RB1) | 3' UTR reporter interaction score (PHOX2B) |
| --- | --- | --- | --- | --- | --- | --- | --- | --- | --- | --- | --- | --- | --- | --- |
| UAAAGUGCUUAUAGUGCAGGUAG | 1.9 | -0.632 | -0.364 | -0.414 | -0.181 | 0.262 | 0.917 | -0.791 | -0.124 | 1.96 | -0.207 | 0.379 | 0.204 | – |
| UAAGGCACCCUUCUGAGUAGA | 0.5 | 0.601 | -2.69 | 1.04 | -0.0578 | 0.807 | -0.104 | -0.435 | – | -0.903 | -0.593 | 0.999 | -1.28 | 1.39 |
| UACGUCAUCGUUGUCAUCGUCA | 0.347 | 0.256 | -0.223 | – | 0.00955 | -2.2 | -0.131 | -1.02 | -0.203 | -0.457 | -0.111 | 0.167 | 0.229 | 0.31 |
| UAGGUAGUUUCCUGUUGUUGG | -0.449 | -0.0724 | 0.324 | -0.34 | 0.913 | 0.639 | 0.244 | – | 0.0231 | -0.855 | -0.416 | -0.324 | -0.415 | 0.179 |
| UAGUAGACCGUAUAGCGUACG | -0.367 | -0.321 | -0.435 | 1.28 | 0.138 | 2.18 | 1.8 | 0.359 | 1.44 | 0.821 | -0.638 | -0.49 | 0.459 | – |
| UAUUGCACAUUACUAAGUUGC | 0.064 | -3.29 | -1.18 | 0.0117 | -0.165 | -0.436 | -0.36 | 1.19 | – | 0.521 | 0.647 | -0.69 | 0.119 | – |
| UCUGCUCAUACCCCAUGGUUUCU | 1.96 | -0.521 | 0.623 | -0.849 | 0.807 | -0.101 | -0.475 | -0.385 | -1.65 | 1.4 | 0.772 | -0.642 | 1.62 | – |
| UGAGGUAGGAGGUUGUAUAGU | 0.75 | 0.127 | -3.52 | -0.34 | 0.0915 | -0.156 | -0.642 | -3.52 | 0.624 | -0.232 | -2.75 | 0.649 | – | 0.238 |
| UGAGGUAGUAGGUUGUAUGGUU | 0.199 | 0.348 | -3.88 | 0.588 | -0.643 | 0.734 | – | -4.05 | 0.761 | 0.487 | -2.26 | 0.339 | – | -0.072 |
| UGAUUGUAGCCUUUUGGAGUAGA | 1.26 | -0.741 | 0.191 | -0.331 | -0.415 | -1.2 | – | 0.938 | 1.56 | 0.465 | -1.19 | 1.52 | -0.751 | -0.496 |
| UGUAAACAUCCUCGACUGGAAG | -0.114 | 0.336 | 0.0496 | 0.672 | -0.35 | -1.69 | – | -0.46 | 0.498 | -2.11 | -0.476 | 0.246 | 0.575 | – |
| UGUAACAGCAACUCCAUGUGGA | 0.232 | -1.43 | -1.3 | -0.161 | -0.515 | 0.401 | -0.0483 | 0.331 | 0.809 | 1.94 | -1.28 | – | -0.726 | -2.2 |
| UGUCUUACUCCCUCAGGCACAU | 0.202 | 1.02 | -0.24 | -2.22 | 0.565 | -0.976 | – | -1.1 | -0.229 | 2.68 | -0.519 | -1.06 | 0.999 | 0.667 |
| UUCUCCAAAAGGGAGCACUUUC | -0.958 | -0.759 | -0.381 | 2.01 | -0.24 | 1.08 | -0.166 | 0.94 | -0.361 | -0.0417 | -0.329 | 0.596 | 1.31 | – |
| UUGAAACAAUCUCUACUGAAC | -0.93 | 1.05 | 0.163 | 0.3 | -0.126 | 0.917 | 0.836 | – | -0.218 | -1.21 | 0.402 | -0.263 | -1.43 | 0.857 |
| UUGUGUCAAUAUGCGAUGAUGU | -0.078 | -1.37 | 0.77 | -0.212 | -0.384 | 0.639 | – | -0.328 | -0.649 | 0.901 | 0.588 | 1.07 | 0.229 | -1.6 |
| UUUGGCACUAGCACAUUUUUGC | 0.322 | -1.69 | 0.814 | -0.203 | -0.115 | 0.198 | 0.319 | 0.288 | – | -0.863 | 0.306 | 0.722 | 0.451 | 0.531 |
| UUUGUGACCUGGUCCACUAACC | -0.491 | -0.879 | 0.358 | -0.568 | -1.6 | 0.152 | 0.65 | 0.167 | 0.254 | 0.815 | -1.92 | – | 0.728 | 0 |
